US20020137929A1, “1 - (3-heterocyclylphenyl) isothiourea, -isourea, -guanidine and -amidine herbicidal agents” (Intellectual Property Department, BASF Aktiengesellschaft, priority 1998, published 2002)

Assays:
[1] = tested on: GLXMAW (Soybean, Williams); experiment: Preemergence herbicidal evaluation; format: in vivo, Glycine max, (L.) Merr. cv Williams; details: rated 4-5 weeks after treatment
How it was run: (§1)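 Test compound, dissolved in aqueous acetone, was sprayed over planted soil cups at an equivalent of about 0.0156 to 0.500 kg/ha; seeds had been mixed with potting soil. Greenhouse growth followed, with visual 0-9 scoring of injury at four to five weeks.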

[2] = tested on: ZEAMX (Corn, Field); experiment: Postemergence herbicidal evaluation; format: in vivo, Zea mays; details: postemergence
How it was run: (§2)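 Scores (0–9) reflect plant stand, vigor, malformation, size, chlorosis and general appearance relative to control, read 4 to 5 weeks after treatment and averaged where tests were repeated. Application: about 0.0156–0.500 kg/ha sprayed at 40 psi onto two-week seedlings.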

[3] = tested on: IPOHE (Morningglory, Ivyleaf); experiment: Postemergence herbicidal evaluation; format: in vivo, Ipomoea hederacea; details: postemergence
How it was run: as §2

[4] = tested on: SETVI (Foxtail, Green); experiment: Postemergence herbicidal evaluation; format: in vivo, Setaria viridis; details: postemergence
How it was run: as §2

[5] = tested on: IPOHE (Morningglory, Ivyleaf); experiment: Preemergence herbicidal evaluation; format: in vivo, Ipomoea hederacea; details: rated 4-5 weeks after treatment
How it was run: as §1

[6] = tested on: ZEAMX (Corn, Field); experiment: Preemergence herbicidal evaluation; format: in vivo, Zea mays; details: rated 4-5 weeks after treatment
How it was run: as §1

[7] = tested on: ORYSAT (Rice, Tebonnet); experiment: Postemergence herbicidal evaluation; format: in vivo, Oryza sativa, (L.) Tebonnet; details: postemergence
How it was run: as §2

[8] = tested on: CASOB (Sicklepod); experiment: Preemergence herbicidal evaluation; format: in vivo, Cassia obtusifolia; details: rated 4-5 weeks after treatment
How it was run: as §1

[9] = tested on: CYPSE (Flatsedge); experiment: Postemergence weed control under flooded paddy conditions; format: in vivo, Cyperus serotinus; details: postemergence weeds, 3-4 weeks after treatment
How it was run: (§3)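 Herbicidal effect is judged by eye on a 0–9 scale versus control, 3–4 weeks after dosing. Dosing is into flood water kept 1.5–3 cm over the soil, at about 0.0313–0.500 kg/ha in aqueous/acetone 50/50 v/v, on 3–5 cm weeds and 1.5–2.5-leaf rice seedlings.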

[10] = tested on: ABUTH (Velvetleaf); experiment: Preemergence herbicidal evaluation; format: in vivo, Abutilon theophrasti; details: rated 4-5 weeks after treatment
How it was run: as §1

[11] = tested on: TRZAWR (Wheat, Winter, cv Riband); experiment: Preemergence herbicidal evaluation; format: in vivo, Triticum aestivum; details: rated 4-5 weeks after treatment
How it was run: as §1

[12] = tested on: ECHCG (Barnyardgrass); experiment: Postemergence herbicidal evaluation; format: in vivo, Echinochloa crus-galli; details: postemergence
How it was run: as §2

[13] = tested on: ABUTH (Velvetleaf); experiment: Postemergence herbicidal evaluation; format: in vivo, Abutilon theophrasti; details: postemergence
How it was run: as §2

[14] = tested on: CYPIR (Rice Flatsedge); experiment: Postemergence weed control under flooded paddy conditions; format: in vivo, Cyperus iria; details: postemergence weeds, 3-4 weeks after treatment
How it was run: as §3

[15] = tested on: CHEAL (Lambsquarters, Common); experiment: Postemergence herbicidal evaluation; format: in vivo, Chenopodium album; details: postemergence
How it was run: as §2

[16] = tested on: CHEAL (Lambsquarters, Common); experiment: Preemergence herbicidal evaluation; format: in vivo, Chenopodium album; details: rated 4-5 weeks after treatment
How it was run: as §1

[17] = tested on: ECHCG (Barnyardgrass); experiment: Preemergence herbicidal evaluation; format: in vivo, Echinochloa crus-galli; details: rated 4-5 weeks after treatment
How it was run: as §1

## CCOC(=O)CN1C(=O)C(F)SC1=Nc1cc(-n2c(=O)cc(C(F)(F)F)n(C)c2=O)c(F)cc1Cl (stereo not shown) [Compound 11, Ethyl 2-{{2-chloro-5-[3,6-dihydro-3-methyl-2,6-dioxo-4-(trifluoromethyl)-1(2H)-pyrimidinyl]-4-fluorophenyl}imino}-5-fluoro-4-oxo-3-thiazolidineacetate]
[1]; rate 0.0156 kg/ha
  GLXMAW preemergence herbicidal rating: 1.5
[1]; rate 0.0313 kg/ha
  GLXMAW preemergence herbicidal rating: 1.5
[1]; rate 0.0625 kg/ha
  GLXMAW preemergence herbicidal rating: 3.5
[1]; rate 0.1250 kg/ha
  GLXMAW preemergence herbicidal rating: 6.0
[1]; rate 0.2500 kg/ha
  GLXMAW preemergence herbicidal rating: 8.0
[2]; rate 0.0156 kg/ha
  ZEAMX herbicidal rating: 6.5
[2]; rate 0.0313 kg/ha
  ZEAMX herbicidal rating: 6.5
[2]; rate 0.0625 kg/ha
  ZEAMX herbicidal rating: 7.5
[2]; rate 0.1250 kg/ha
  ZEAMX herbicidal rating: 7.5
[3]; rate 0.0156 kg/ha
  IPOHE herbicidal rating: 9.0
[3]; rate 0.0313 kg/ha
  IPOHE herbicidal rating: 9.0
[3]; rate 0.0625 kg/ha
  IPOHE herbicidal rating: 9.0
[3]; rate 0.1250 kg/ha
  IPOHE herbicidal rating: 9.0
[4]; rate 0.0156 kg/ha
  SETVI herbicidal rating: 0.0
[4]; rate 0.0313 kg/ha
  SETVI herbicidal rating: 0.0
[4]; rate 0.0625 kg/ha
  SETVI herbicidal rating: 6.0
[4]; rate 0.1250 kg/ha
  SETVI herbicidal rating: 9.0
[5]; rate 0.0156 kg/ha
  IPOHE preemergence herbicidal rating: 2.0
[5]; rate 0.0313 kg/ha
  IPOHE preemergence herbicidal rating: 8.0
[5]; rate 0.0625 kg/ha
  IPOHE preemergence herbicidal rating: 8.0
[5]; rate 0.1250 kg/ha
  IPOHE preemergence herbicidal rating: 9.0
[5]; rate 0.2500 kg/ha
  IPOHE preemergence herbicidal rating: 9.0
[6]; rate 0.0156 kg/ha
  ZEAMX preemergence herbicidal rating: 0.0
[6]; rate 0.0313 kg/ha
  ZEAMX preemergence herbicidal rating: 0.5
[6]; rate 0.0625 kg/ha
  ZEAMX preemergence herbicidal rating: 3.5
[6]; rate 0.1250 kg/ha
  ZEAMX preemergence herbicidal rating: 4.5
[6]; rate 0.2500 kg/ha
  ZEAMX preemergence herbicidal rating: 5.5
[7]; rate 0.0156 kg/ha
  ORYSAT herbicidal rating: 2.0
[7]; rate 0.0313 kg/ha
  ORYSAT herbicidal rating: 2.0
[7]; rate 0.0625 kg/ha
  ORYSAT herbicidal rating: 3.0
[7]; rate 0.1250 kg/ha
  ORYSAT herbicidal rating: 3.0
[8]; rate 0.0156 kg/ha
  CASOB preemergence herbicidal rating: 0.0
[8]; rate 0.0313 kg/ha
  CASOB preemergence herbicidal rating: 0.0
[8]; rate 0.0625 kg/ha
  CASOB preemergence herbicidal rating: 0.0
[8]; rate 0.1250 kg/ha
  CASOB preemergence herbicidal rating: 0.0
[8]; rate 0.2500 kg/ha
  CASOB preemergence herbicidal rating: 5.5
[9]; rate 0.0313 kg/ha
  Herbicidal rating CYPSE: 0.0
[9]; rate 0.0625 kg/ha
  Herbicidal rating CYPSE: 0.0
[9]; rate 0.1250 kg/ha
  Herbicidal rating CYPSE: 0.0
[9]; rate 0.2500 kg/ha
  Herbicidal rating CYPSE: 0.0
[10]; rate 0.0156 kg/ha
  ABUTH preemergence herbicidal rating: 7.5
[10]; rate 0.0313 kg/ha
  ABUTH preemergence herbicidal rating: 8.5
[10]; rate 0.0625 kg/ha
  ABUTH preemergence herbicidal rating: 8.5
[10]; rate 0.1250 kg/ha
  ABUTH preemergence herbicidal rating: 9.0
[10]; rate 0.2500 kg/ha
  ABUTH preemergence herbicidal rating: 9.0
[11]; rate 0.0156 kg/ha
  TRZAWR preemergence herbicidal rating: 0.0
[11]; rate 0.0313 kg/ha
  TRZAWR preemergence herbicidal rating: 0.0
[11]; rate 0.0625 kg/ha
  TRZAWR preemergence herbicidal rating: 0.0
[11]; rate 0.1250 kg/ha
  TRZAWR preemergence herbicidal rating: 2.0
[11]; rate 0.2500 kg/ha
  TRZAWR preemergence herbicidal rating: 5.0
[12]; rate 0.0156 kg/ha
  ECHCG herbicidal rating: 0.0
[12]; rate 0.0313 kg/ha
  ECHCG herbicidal rating: 0.0
[12]; rate 0.0625 kg/ha
  ECHCG herbicidal rating: 6.0
[12]; rate 0.1250 kg/ha
  ECHCG herbicidal rating: 7.0
[13]; rate 0.0156 kg/ha
  ABUTH herbicidal rating: 9.0
[13]; rate 0.0313 kg/ha
  ABUTH herbicidal rating: 9.0
[13]; rate 0.0625 kg/ha
  ABUTH herbicidal rating: 9.0
[13]; rate 0.1250 kg/ha
  ABUTH herbicidal rating: 9.0
[14]; rate 0.0313 kg/ha
  Herbicidal rating CYPIR: 0.0
[14]; rate 0.0625 kg/ha
  Herbicidal rating CYPIR: 0.0
[14]; rate 0.1250 kg/ha
  Herbicidal rating CYPIR: 0.0
[14]; rate 0.2500 kg/ha
  Herbicidal rating CYPIR: 0.0
[15]; rate 0.0156 kg/ha
  CHEAL herbicidal rating: 7.0
[15]; rate 0.0313 kg/ha
  CHEAL herbicidal rating: 9.0
[15]; rate 0.0625 kg/ha
  CHEAL herbicidal rating: 9.0
[15]; rate 0.1250 kg/ha
  CHEAL herbicidal rating: 9.0
[16]; rate 0.0156 kg/ha
  CHEAL preemergence herbicidal rating: 7.5
[16]; rate 0.0313 kg/ha
  CHEAL preemergence herbicidal rating: 9.0
[16]; rate 0.0625 kg/ha
  CHEAL preemergence herbicidal rating: 9.0
[16]; rate 0.1250 kg/ha
  CHEAL preemergence herbicidal rating: 9.0
[16]; rate 0.2500 kg/ha
  CHEAL preemergence herbicidal rating: 9.0
[17]; rate 0.0156 kg/ha
  ECHCG preemergence herbicidal rating: 0.0
[17]; rate 0.0313 kg/ha
  ECHCG preemergence herbicidal rating: 0.0
[17]; rate 0.0625 kg/ha
  ECHCG preemergence herbicidal rating: 0.0
[17]; rate 0.1250 kg/ha
  ECHCG preemergence herbicidal rating: 3.5
[17]; rate 0.2500 kg/ha
  ECHCG preemergence herbicidal rating: 7.0
